Data published in patent US11691972B2, “Compounds for targeted degradation of BRD9” (C4 Therapeutics, Inc., priority 2020, dated 2023).
Read-outs that look alike come from different tables or passages of the source.

Target: T1, BRD9 (Homo sapiens, UniProt Q9H8M2)
T1 sequence (Q9H8M2 1-597): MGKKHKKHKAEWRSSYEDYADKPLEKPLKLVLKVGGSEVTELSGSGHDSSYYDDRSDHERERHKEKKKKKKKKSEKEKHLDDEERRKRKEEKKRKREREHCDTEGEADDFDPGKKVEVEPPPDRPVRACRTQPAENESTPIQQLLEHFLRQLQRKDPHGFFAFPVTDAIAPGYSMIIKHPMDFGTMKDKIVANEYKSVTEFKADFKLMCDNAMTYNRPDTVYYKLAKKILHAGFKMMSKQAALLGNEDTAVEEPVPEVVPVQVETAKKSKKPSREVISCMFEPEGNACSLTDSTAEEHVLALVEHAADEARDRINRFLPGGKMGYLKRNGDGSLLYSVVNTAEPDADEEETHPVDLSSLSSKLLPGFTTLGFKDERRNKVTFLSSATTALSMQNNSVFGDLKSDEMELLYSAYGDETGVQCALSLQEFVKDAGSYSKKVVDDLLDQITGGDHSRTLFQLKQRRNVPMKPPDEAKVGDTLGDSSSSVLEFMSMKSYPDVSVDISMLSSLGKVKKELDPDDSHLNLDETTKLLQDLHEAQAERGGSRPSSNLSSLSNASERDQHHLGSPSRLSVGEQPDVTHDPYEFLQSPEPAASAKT
Assay: HiBiT BRD9 degradation assay in 293T.166 (BRD9-HiBiT) cells
Format: cell-based
Design: endogenously expressing BRD9 with HiBiT fusion tag via CRISPR; host or cells: 293T.166 (BRD9-HiBiT), also expressing LgBiT ectopically
Conditions: Table 1, 293T.166 cells, 2.0 hours, read-out: HiBiT-Degradation 293T.166 BRD9 2.0 hours (DC50)
Outline: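 Luminescence from the Nano-Glo HiBiT lytic reagent quantified BRD9 loss after compounds (top 10 μM, half-log, 11 points, duplicates) were incubated 2 h at 37° C. with 10,000 293T.166 BRD9-HiBiT/LgBiT cells per well, with controls lacking compound or lacking reagent.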

SMILES	DC50 (class symbols)	DC50 (numeric bound)
Cc1c(-c2ccc(CN3CCC(F)(C4CCN(c5ccc(NC6CCC(=O)NC6=O)cc5F)CC4)CC3)c(OC(F)(F)F)c2)cn(C)c(=O)c1C (stereo not drawn) [Compound 244]	< 100 nM	–
COc1cc(-c2cn(C)c(=O)c3[nH]ncc23)cc(OC)c1CNc1ccc2c(c1)CCN(C(=O)C1CCN(c3ccc(NC4CCC(=O)NC4=O)cc3)CC1)C2 (stereo not drawn) [Compound 170]	< 100 nM	–
COc1cc(-c2cn(C)c(=O)c3cnccc23)cc(Cl)c1CN1CCC(N2CCN(c3ccc(NC4CCC(=O)NC4=O)cc3Cl)CC2)C(F)(F)C1 (stereo not drawn) [Compound 186]	< 100 nM	–
COc1cc(-c2cn(C)c(=O)c3[nH]ncc23)cc(OC)c1CN1CCc2c(CC3CCN(c4ccc(NC5CCC(=O)NC5=O)cc4F)CC3)cccc2C1 (stereo not drawn) [Compound 106]	< 100 nM	–
COc1cc(-c2cn(C)c(=O)c3ccccc23)cc(F)c1CN1CCC(N(C)C(=O)N2CCC(c3ccc(NC4CCC(=O)NC4=O)cc3)CC2)CC1 (stereo not drawn) [Compound 119]	< 100 nM	–
Cc1c(-c2ccc(C(=O)N3CCC(C4CCN(c5ccc(NC6CCC(=O)NC6=O)cc5F)CC4)CC3)c(OC(F)(F)F)c2)cn(C)c(=O)c1C (single isomer, unassigned) [Compound 213, 3-[3-fluoro-4-[4-[1-[2-(trifluoromethoxy)-4-(1,4,5-trimethyl-6-oxo-3-pyridyl)benzoyl]-4-piperidyl]-1-piperidyl]anilino]piperidine-2,6-dione]	–	> 800 nM
COc1cc(-c2cn(C)c(=O)c3[nH]ncc23)cc(OC)c1CN1CCC2(CC1)CN(C(=O)CN1CCC(c3ccc(NC4CCC(=O)NC4=O)cc3)CC1)C2 (stereo not drawn) [Compound 4]	< 100 nM	–
COc1cc(-c2cn(C)c(=O)c3cnccc23)cc(OC)c1CN1CCc2c(CC3CCN(c4ccc(NC5CCC(=O)NC5=O)cc4C(F)(F)F)CC3)cccc2C1 (stereo not drawn) [Compound 237]	< 100 nM	–
COc1cc(-c2cn(C)c(=O)c(C)c2C)cc(OC)c1CN1CCc2c(CC3CCN(c4ccc(NC5CCC(=O)NC5=O)cc4C(F)(F)F)CC3)cccc2C1 (stereo not drawn) [Compound 108]	< 100 nM	–
COc1cc(-c2cc(C)c(=O)n(C)c2)cc(OC)c1CN1CCN(C(=O)CN2CCC(c3ccc(NC4CCC(=O)NC4=O)cc3)CC2)CC1 (stereo not drawn) [Compound 31]	< 100 nM	–
COc1cc(-c2cn(C)c(=O)c3[nH]ncc23)cc(OC)c1CN1CCN(C(=O)CN2CCN(c3ccc(NC4CCC(=O)NC4=O)cc3F)CC2)C(C)(C)C1 (stereo not drawn) [Compound 111, 3-[4-[4-[2-[4-[[2,6-dimethoxy-4-(6-methyl-7-oxo-1H-pyrazolo[3,4-c]pyridin-4-yl)phenyl]methyl]-2,2-dimethyl-piperazin-1-yl]-2-oxo-ethyl]piperazin-1-yl]-3-fluoro-anilino]piperidine-2,6-dione]	< 100 nM	–
CN(C(=O)N1CCC(c2ccc(NC3CCC(=O)NC3=O)cc2)CC1)C1CCN(Cc2ccc(-c3cn(C)c(=O)c4cnccc34)cc2OC(F)(F)F)CC1 (stereo not drawn) [Compound 122]	< 100 nM	–
COc1cc(-c2cn(C)c(=O)c3[nH]ncc23)cc(F)c1CN1CCN(C(=O)OC2CCN(c3ccc(NC4CCC(=O)NC4=O)cc3)CC2)CC1 (stereo not drawn) [Compound 146, [1-[4-[(2,6-dioxo-3-piperidyl)amino]phenyl]-4-piperidyl] 4-[[2-fluoro-6-methoxy-4-(6-methyl-7-oxo-1H-pyrazolo[3,4-c]pyridin-4-yl)phenyl]methyl]piperazine-1-carboxylate]	< 100 nM	–
COc1cc(-c2cn(C)c(=O)c3cnccc23)cc(Cl)c1CN1CCC(N2CCN(c3ccc(NC4CCC(=O)NC4=O)cc3F)CC2)C(F)(F)C1 (single isomer, unassigned) [Compound 181, 3-[4-[4-[1-[[2-chloro-6-methoxy-4-(2-methyl-1-oxo-2,7-naphthyridin-4-yl)phenyl]methyl]-3,3-difluoro-4-piperidyl]piperazin-1-yl]-3-fluoro-anilino]piperidine-2,6-dione]	< 100 nM	–
COc1cc(-c2cn(C)c(=O)c3[nH]ncc23)cc(OC)c1CC1CCN(C(=O)CN2CCC(c3ccc(NC4CCC(=O)NC4=O)cc3)CC2)CC1 (stereo not drawn) [Compound 155, 3-[4-[1-[2-[4-[[2,6-dimethoxy-4-(6-methyl-7-oxo-1H-pyrazolo[3,4-c]pyridin-4-yl)phenyl]methyl]-1-piperidyl]-2-oxo-ethyl]-4-piperidyl]anilino]piperidine-2,6-dione]	< 100 nM	–
COc1cc(-c2cn(C)c(=O)c(C)c2C)cc(Cl)c1C(=O)N1CCC(N2CCC(c3ccc(NC4CCC(=O)NC4=O)cc3)C(F)(F)C2)CC1 (stereo not drawn) [Compound 229]	< 100 nM	–
CN(C(=O)N1CCC(c2ccc(NC3CCC(=O)NC3=O)cc2)CC1)C1CCN(C(=O)c2ccc(-c3cn(C)c(=O)c4ccc(F)cc34)cc2OC(F)(F)F)CC1 (stereo not drawn) [Compound 128]	< 100 nM	–
COc1cc(-c2cn(C)c(=O)c3ccccc23)cc(Cl)c1C(=O)N1CCC(N(C)C(=O)N2CCC(c3ccc(NC4CCC(=O)NC4=O)cc3)CC2)CC1 (stereo not drawn) [Compound 136]	< 100 nM	–
COc1cc(-c2cn(C)c(=O)c3cnccc23)cc(OC)c1CN1CCN(C(=O)CC2CCN(c3ccc(NC4CCC(=O)NC4=O)cc3C(F)(F)F)CC2)CC1 (single isomer, unassigned) [Compound 56]	< 100 nM	–
COc1cc(-c2cn(C)c(=O)c3cnccc23)cc(Cl)c1CN1CCC(N2CCN(c3ccc(OC4CCC(=O)NC4=O)cc3F)CC2)C(F)(F)C1 (stereo not drawn) [Compound 230, 3-[4-[4-[1-[[2-chloro-6-methoxy-4-(2-methyl-1-oxo-2,7-naphthyridin-4-yl)phenyl]methyl]-3,3-difluoro-4-piperidyl]piperazin-1-yl]-3-fluoro-phenoxy]piperidine-2,6-dione]	< 100 nM	–
Cn1cc(-c2ccc(CN3CCC(C4CCN(c5ccc(NC6CCC(=O)NC6=O)cc5F)CC4)CC3)c(OC(F)(F)F)c2)c2ccncc2c1=O (stereo not drawn) [Compound 79]	< 100 nM	–
COc1cc(-c2cn(C)c(=O)c3[nH]ncc23)cc(OC)c1C(=O)N1CCN(C(=O)CN2CCC(c3ccc(NC4CCC(=O)NC4=O)cc3)CC2)CC1 (stereo not drawn) [Compound 46, 3-[4-[1-[2-[4-[2,6-dimethoxy-4-(6-methyl-7-oxo-1H-pyrazolo[3,4-c]pyridin-4-yl)benzoyl]piperazin-1-yl]-2-oxo-ethyl]-4-piperidyl]anilino]piperidine-2,6-dione]	< 100 nM	–
COc1cc(-c2cn(C)c(=O)c3cnccc23)cc(Cl)c1CN1CCC(N2CCN(c3ccc(NC4CCC(=O)NC4=O)cc3F)CC2)C(F)(F)C1 (stereo not drawn) [Compound 177, 3-[4-[4-[1-[[2-chloro-6-methoxy-4-(2-methyl-1-oxo-2,7-naphthyridin-4-yl)phenyl]methyl]-3,3-difluoro-4-piperidyl]piperazin-1-yl]-3-fluoro-anilino]piperidine-2,6-dione]	< 100 nM	–
COc1cc(-c2cn(C)c(=O)c3cnccc23)cc(OC)c1CN1CCN(C(=O)CC2CCN(c3ccc(NC4CCC(=O)NC4=O)cc3C(F)(F)F)CC2)CC1 (stereo not drawn) [Compound 54]	< 100 nM	–
CN(C(=O)N1CCC(c2ccc(NC3CCC(=O)NC3=O)cc2)CC1)C1CCN(Cc2ccc(-c3cn(C)c(=O)c4[nH]ncc34)cc2OC(F)(F)F)CC1 (stereo not drawn) [Compound 116]	< 100 nM	–
COc1cc(-c2cn(C)c(=O)c3[nH]ncc23)cc(Cl)c1CN1CCC(CC(=O)N2CCC(c3ccc(NC4CCC(=O)NC4=O)cc3)CC2)C(F)(F)C1 (single isomer, unassigned) [Compound 204]	< 100 nM	–
COc1cc(-c2cn(C)c(=O)c(C)c2C)cc(OC)c1CN1CCN(C(=O)CC2CCN(c3ccc(NC4CCC(=O)NC4=O)cc3C(F)(F)F)CC2)CC12CC2 (stereo not drawn) [Compound 60]	< 100 nM	–
